Broadly, the NOAEL is the highest tested level that showed no adverse finding.

Molecules are shown by their SMILES.

The test system of one series is Apis mellifera. Conditions: acute, duration: 48 hours, mortality.
The subject of the next series is Bibionidae. The conditions noted are these: chronic/long-term; duration: 28 days; other.
The next series deals with Colinus virginianus. Conditions: for LD50: acute, oral, mortality.
The next series deals with Cyprinodon variegatus. Conditions: chronic/long-term; duration: 28 days; time to hatch.
The next series has as its system Daphnia magna. The conditions noted are these: chronic/long-term; duration: 21 days; reproduction.
In a further series the test system is Oncorhynchus mykiss. Conditions: acute; duration: 96 hours; mortality.
The test system of the next series is Oryctolagus sp. The conditions noted are these: reproduction developmental.
The test system of a further series is Rattus norvegicus. The conditions noted are these: acute; oral; mortality.
A further series relates to Aphidius rhopalosiphi. Kind of series: LR50; higher = less toxic. The conditions noted are these: acute; duration: 48 hours; mortality.
The test system of another series is Typhlodromus pyri. Kind of series: LR50; higher = less toxic. Conditions: chronic/long-term; duration: 14 days; mortality.

Take `Nc1cc(Cl)nc(C(=O)O)c1Cl` [4-Amino-3,6-dichloro-2-pyridinecarboxylic acid]: the LD50 with Apis mellifera (dermal) is over 100 µg/piece; in the series on Apis mellifera (oral, unspecified) it was over 120 µg/piece; in the series with Colinus virginianus (diet) it was over 1460 mg/kg-day; in the series on Colinus virginianus it was over 2250 mg/kg-day; with Rattus norvegicus, over 5000 mg/kg-day. Moreover, the NOEC with Bibionidae was 130 mg/L; in the series on Cyprinodon variegatus, 0.1 mg/L; with Daphnia magna it was 100 mg/L; with Tagia sp. (chronic/long-term, duration: 8 weeks) it was 3.2 mg/kg. In the series with Colinus virginianus (reproduction developmental, reproduction), this compound had an NOEL of 190 mg/kg-day. Also, the LC50 with Oncorhynchus mykiss is over 100 mg/L; with Tagia sp. (acute, duration: 14 days, mortality) it was over 1000 mg/kg. Further, the no observed adverse effect level (NOAEL) with Oryctolagus sp. (clinical signs) was found to be 26 mg/kg-day; in the series with Oryctolagus sp. (no effects) it was 256 mg/kg-day. Further, the LR50 in the series on Aphidius rhopalosiphi and in the series with Typhlodromus pyri was over 60 g/ha each time.

The values are drawn from EPA's ToxValDB 9.5 (doi:10.2903/j.efsa.2013.3352).
